Structures are written as SMILES. Values after ≈ are worked out from the molar mass of the structure shown. Where two headings read alike, the source gives them in different places. A value given as a limit tells only on which side of the number the result lay.

In data set [1] the test system is ileum preparations, histamine spasm. Kind of data set: Spasmolytic activity on isolated ileum (Magnus), histamine spasm. On the set-up: species or system Guinea pigs. As to conditions: Cavia porcellus, guinea pig ileum, 37° C, histamine 8×10^-6 g/ml; for IC50: read-out: ED50 Histamine (spasmolytic). The procedure: (§1) The method described by Magnus was employed [Therap. Grundlagen der Experimentellen Arzneimittelforschung, Wiss. Verlagsgesellschaft, Stuttgart (1965) page 241].
(§2) Guinea pigs of both sexes weighing between 200 and 500 g were killed by cervical blow. After that they were allowed to bleed and then laparotomized. About 15 cm of the distal ileum were then placed into a Krebs-Henseleit-solution at 37° C.
(§3) Ileum preparations of about 1 cm length were fixed in a special vessel containing 25 ml of the Krebs-Henseleit-solution which were percolated by a gas mixture (Carbogen) consisting of 95% oxygen and 5% carbon dioxide. The temperature of the bath was maintained at 37° C. The movements of the ileum preparations were observed by a lampblack-kymograph.
(§4) Every 10 minutes single spasms were caused with solutions of acetylcholine (4×10^-7 g/ml) barium chloride (4×10^-4 g/ml) and histamine (8×10^-6 g/ml) in the Krebs-Henseleit-solution. Five minutes after application the spasms were stopped by rinsing the ileum segments with a Krebs-Henseleit-solution which was free of spasmodics. The tested compounds were added to ther Krebs-Henseleit-solution 2 minutes after causing the spasms.

Data set [2] is described as follows: Acute toxicity in mice (LD50, Litchfield and Wilcoxon). As to conditions: mouse, in vivo, male NRMI mice. The procedure:
The acute toxicity has been determined in male mice (NRMI strain) weighing 17 to 21 g. The animals were fasted 24 hours prior to the trial. Water was offered ad libidum. The substances were administered subcutaneously and by using a gastric tube in increasing doses to groups consisting of 6 animals. The animals were observed over a period of 24 hours. The LD50 values were determined according to the method of Litchfield and Wilcoxon (Therap. Grundlagen der experimentellen Arzneimittelforschung--Ther. Fundamentals of Experimental Durg Research--1965--page 82). The findings were compiled as average values in the following tables: […]

For data set [3], the system named is histamine-spasm (bronchospasm). The data set can be described thus: Bronchospasmolytic activity (Konzett and Roessler), histamine-spasm. It is filed as in vivo, guinea pigs. As to conditions: Cavia porcellus, iv, 2 min; guinea pig, i.v., 2 min before histamine. The procedure: (§5) The method described by Konzett and Roessler was employed (Arch.exp.Path.Pharmak. 195, 72 (1940).
(§6) Experimental animals were guinea pigs weighing between 280 and 380 g. The animals were kept under urethane narcosis (1.5 g/kg i.m.) and their chests opened. The animals received artificial respiration by means of a respiratory pump. The respiratory pressure was adjusted by a mercury manometer. Every 4 minutes a bronchospasm was caused by intravenous application (vena jugularis) of spasmodics. These were acetylcholine and histamine. Two minutes prior to the injection of a spasmodic, the substances under investigation were administered, i.e. again by intravenous injection. […] With respect to the histamine-spasm they were active in the range of […].

Data set [4] relates to acetylcholine-spasm (bronchospasm). Kind of data set: Bronchospasmolytic activity (Konzett and Roessler), acetylcholine-spasm. It is filed as in vivo, guinea pigs. As to conditions: Cavia porcellus, iv, 2 min; guinea pig, i.v., 2 min before acetylcholine; read-out: ED100 Acetyl-choline (bronchospasmolytic). How it is done:
as §5, §6

Data set [5] deals with ileum preparations, acetylcholine spasm. The data set can be described thus: Spasmolytic activity on isolated ileum (Magnus), acetylcholine spasm. More on the design: species or system Guinea pigs. As to conditions: Cavia porcellus, guinea pig ileum, 37° C, acetylcholine 4×10^-7 g/ml; for IC50: read-out: ED50 Acetylcholine (spasmolytic). The procedure:
as §1, §2, §3, §4

Data set [6] has as its system ileum preparations, barium chloride spasm. The data set can be described thus: Spasmolytic activity on isolated ileum (Magnus), barium chloride spasm. More on the design: species or system Guinea pigs. To be noted: Cavia porcellus, guinea pig ileum, 37° C, barium chloride 4×10^-4 g/ml; for IC50: read-out: ED50 Barium-Chloride (spasmolytic). How it is done: as §1, §2, §3, §4

[7] abbreviates: po, w.i.g. (gastric tube), read-out: Acute Toxicity LD50, w.i.g.
The mark [8] stands for this setting: sc, subcutaneous, read-out: Acute Toxicity LD50, S.C.

As a reminder, the LD50 is the dose expected to kill half of the subjects tested. Take `CCN(CC)CCN=S(=O)(c1ccccc1)c1cccs1` (stereo not drawn) [Example 1, N-(2-Diethylaminoethyl)-S-phenyl-S-(2-thienyl)-sulphoximide]: the IC50 in data set [1] was 5 µg/mL (≈ 15.5 µM); in data set [5], 1 µg/mL (≈ 3.1 µM); in data set [6], 80 µg/mL (≈ 248 µM). For the same compound, the 50% lethal dose (LD50) at 24 h was found to be 200 mg/kg in data set [2] (setting [7]) and 150 mg/kg in data set [2] (setting [8]). Also, the ED100 in data set [3] is above 4 mg/kg; in data set [4], 1 mg/kg.
Take `C[N+](C)(C)CCCN=S(=O)(c1ccccc1)c1cccs1` (stereo not drawn) [Example 2, N-(3-trimethylammoniumpropyl)-S-phenyl-S-(2-thienyl)-sulphoximide iodide]: the LD50 at 24 h in data set [2] (setting [7]) was above 400 mg/kg; in data set [2] (setting [8]) it was 300 mg/kg. The IC50 in data set [5] amounted to 5 µg/mL.
With `CN(C)CCCN=S(=O)(c1ccccc1)c1cccs1` (centres unmarked) [Example 2], the IC50 in data set [1] was 50 µg/mL (≈ 162 µM); in data set [5] it was above 1 µg/mL; in data set [6] it was above 10 µg/mL. Besides, the results for the LD50 at 24 h in data set [2] (setting [7]) and in data set [2] (setting [8]) were below 800 mg/kg and 600 mg/kg, respectively.
Take `O=S(=NCCN1CCCC1)(c1ccccc1)c1cccs1` (stereo not drawn) [Example 3, N-(2-Pyrrolidinoethyl)-S-phenyl-S-(2-thienyl)-sulphoximide]: the IC50 in data set [1] was 5 µg/mL (≈ 15.6 µM); in data set [5] it was above 1 µg/mL. The LD50 at 24 h in data set [2] (setting [7]) was determined as 150 mg/kg.
Turning to `CCN(CC)CCN=S(=O)(c1ccccc1)c1ccsc1` (stereo not drawn) [Example 4, N-(2-Diethylaminoethyl)-S-phenyl-S-(3-thienyl)-sulphoximide], the IC50 in data set [1] is 10 µg/mL (≈ 31 µM); in data set [5] it was 1 µg/mL (≈ 3.1 µM); in data set [6], 40 µg/mL (≈ 124 µM). The LD50 at 24 h in data set [2] (setting [7]) turned out to be 200 mg/kg; in data set [2] (setting [8]), 150 mg/kg. The ED100 was above 8 mg/kg in data set [3] and above 2 mg/kg in data set [4].
As for `CCN(CC)CCN=S(=O)(c1cccs1)c1cccs1` [Example 5, N-(2-Diethylaminoethyl)-S,S-bis-(2-thienyl)-sulphoximide], the IC50 in data set [1] was found to be 10 µg/mL (≈ 30.4 µM); in data set [5], 1 µg/mL (≈ 3.04 µM); in data set [6] it was 40 µg/mL (≈ 122 µM). Further, the LD50 at 24 h in data set [2] (setting [7]) was 250 mg/kg; in data set [2] (setting [8]), 100 mg/kg. The ED100 is above 8 mg/kg in data set [3] and 2 mg/kg in data set [4].
As for `O=S(=NCCN1CCCCC1)(c1cccs1)c1cccs1` [Example 6, N-(2-Piperidinoethyl)-S,S-bis-(2-thienyl)-sulphoximide], the IC50 in data set [1] came out at 10 µg/mL (≈ 29.4 µM); in data set [5], 5 µg/mL (≈ 14.7 µM); in data set [6], 80 µg/mL (≈ 235 µM). The LD50 at 24 h in data set [2] (setting [7]) stood at 200 mg/kg.
`O=S(=NCCN1CCOCC1)(c1cccs1)c1cccs1` [Example 7, N-(2-Morpholinoethyl)-S,S-bis-(2-thienyl)-sulphoximide]: the IC50 was found to be 40 µg/mL (≈ 117 µM) in data set [1] and 4 µg/mL (≈ 11.7 µM) in data set [5]. In addition, the LD50 at 24 h in data set [2] (setting [7]) was 1000 mg/kg.
For `CCN(CC)CCN=S(=O)(c1ccsc1)c1cccs1` (stereo not drawn) [Example 8, N-(2-Diethylaminoethyl)-S-(2-thienyl)-S-(3-thienyl)-sulphoximide], the figures for the IC50 in data set [1], in data set [5] and in data set [6] were 2 µg/mL (≈ 6.09 µM), 0.5 µg/mL (≈ 1.52 µM) and 80 µg/mL (≈ 244 µM), respectively. The LD50 at 24 h in data set [2] (setting [7]) was below 300 mg/kg; in data set [2] (setting [8]), 250 mg/kg. The ED100 in data set [3] was determined as 4 mg/kg; in data set [4] it was 2 mg/kg.
Regarding `CCN(CC)CCN=S(=O)(c1ccsc1)c1ccsc1` [Example 9, N-(2-Diethylaminoethyl)-S,S-bis-(3-thienyl)-sulphoximide], the IC50 in data set [1] was determined as 10 µg/mL (≈ 30.4 µM); in data set [5], 0.25 µg/mL (≈ 0.761 µM). Also, the LD50 at 24 h is above 30 mg/kg in data set [2] (setting [7]) and 30 mg/kg in data set [2] (setting [8]). In addition, the ED100 in data set [3] was above 8 mg/kg; in data set [4], 4 mg/kg.
Take `CCN(CC)CCN=S(=O)(c1ccccc1)c1ccco1` (stereo not drawn) [Example 10, N-(2-Diethylaminoethyl)-S-(2-furyl)-S-phenyl-sulphoximide]: the LD50 at 24 h in data set [2] (setting [7]) was 400 mg/kg; in data set [2] (setting [8]), 150 mg/kg.
In the case of `CCN(CC)CCN=S(=O)(c1ccccc1)c1cccnc1` (stereo not drawn) [Example 12, N-(2-Diethylaminoethyl)-S-phenyl-S-(3-pyridyl)-sulphoximide], in data set [2] (setting [7]), the LD50 at 24 h amounted to 1600 mg/kg.
Turning to `CCN(CC)CCN=S(=O)(c1ccccc1)c1ccccc1` [Sulfoxifen-Phosphate, N(2-Diethylaminoethyl)-diphenyl-sulfoximin, reference compound], the IC100 was determined as 10 µg/mL in data set [1] ((ED100)), 1 µg/mL in data set [5] ((ED100)) and 80 µg/mL in data set [6] ((ED100)). Moreover, the IC50 worked out at 1 µg/mL (≈ 3.16 µM) in data set [1], 0.1 µg/mL (≈ 0.316 µM) in data set [5] and 40 µg/mL (≈ 126 µM) in data set [6]. Further, the LD50 at 24 h in data set [2] (setting [7]) was found to be 180 mg/kg; in data set [2] (setting [8]), 175 mg/kg. Moreover, the ED100 in data set [3] and in data set [4] was 4 mg/kg each time.

These data come from US4294838A, “Certain heterocyclic sulfoximide derivatives” (priority 1977, dated 1981).
